From patent US9549558B2, “Herbicidal azines” (BASF SE, priority 2012, dated 2017)

What was measured:
Format in all cases: in vivo
[1] = system: ABUTH (Abutilon theophrasti); experiment: greenhouse post-emergence herbicidal test
Outline: (§1)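 Post-emergence greenhouse test on plants grown to 3–15 cm in loamy sand (~3.0% humus), sprayed with active ingredient suspended or emulsified in water. Plants held at 10-25 °C or 20-35 °C by species for 2 to 4 weeks, then damage scored visually 0–100 (100 = complete destruction of aerial parts, 0 = no damage).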

[2] = system: CHEAL (Chenopodium album); experiment: greenhouse post-emergence herbicidal test
Outline: as §1

[3] = system: POLCO (Polygonum convolvulus); experiment: greenhouse post-emergence herbicidal test
Outline: as §1

[4] = system: AMARE (Amaranthus retroflexus); experiment: greenhouse post-emergence herbicidal test
Outline: as §1

[5] = system: SETVI (Setaria viridis); experiment: greenhouse pre-emergence herbicidal test
Outline: (§2)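 Seeds were sown in loamy sand with about 3.0% humus, and compounds suspended or emulsified in water were sprayed right after sowing. Pots were kept under transparent hoods until rooting at 10-25° C. or 20-35° C. depending on species, and damage was scored 0-100 after 2 to 4 weeks.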

[6] = system: STEME (Stellaria media); experiment: greenhouse pre-emergence herbicidal test
Outline: as §2

[7] = system: CAPBP (Capsella bursa-pastoris); experiment: greenhouse pre-emergence herbicidal test; conditions: CAPBP
Outline: as §2

[8] = system: GERDI (Geranium dissectum); experiment: greenhouse post-emergence herbicidal test
Outline: as §1

[9] = system: ECHCG (Echinocloa crus-galli); experiment: greenhouse pre-emergence herbicidal test; conditions: 125 g/ha
Outline: as §2

[10] = system: ECHCG (Echinocloa crus-galli); experiment: greenhouse post-emergence herbicidal test
Outline: as §1

CC(F)(F)c1nc(N)nc(Nc2c(F)c(F)cc(F)c2F)n1 [Example 8]
herbicidal activity ([1]; 0.062 kg/ha): very good (a very good herbicidal activity is given at values of at least 85) | herbicidal activity ([2]; 0.062 kg/ha): very good (a very good herbicidal activity is given at values of at least 85)

Nc1nc(Nc2c(F)ccc(F)c2F)nc(C(F)(F)F)n1 [Example 127]
herbicidal activity ([3]; 1000 g/ha): good (a good herbicidal activity is given at values of at least 70) | herbicidal activity ([4]; 1000 g/ha): very good (a very good herbicidal activity is given at values of at least 85) | herbicidal activity ([2]; 1000 g/ha): very good (a very good herbicidal activity is given at values of at least 85)

Nc1nc(CCC(F)(F)F)nc(Nc2c(F)c(F)c(F)c(F)c2F)n1 [Example 73]
herbicidal activity ([5]; 250 g/ha): very good (a very good herbicidal activity is given at values of at least 85) | herbicidal activity ([6]; 250 g/ha): very good (a very good herbicidal activity is given at values of at least 85) | herbicidal activity ([7]; 250 g/ha): very good (a very good herbicidal activity is given at values of at least 85)

CC(F)(F)c1nc(N)nc(Nc2c(F)c(F)c(F)c(F)c2F)n1 [Example 9]
herbicidal activity ([1]; 0.062 kg/ha): very good (a very good herbicidal activity is given at values of at least 85) | herbicidal activity ([8]; 0.062 kg/ha): very good (a very good herbicidal activity is given at values of at least 85)

CCC(C)c1nc(N)nc(Nc2c(F)c(F)c(F)c(F)c2F)n1 (centres unmarked) [Example 62]
herbicidal activity ([5]; 125 g/ha): very good (a very good herbicidal activity is given at values of at least 85) | herbicidal activity ([6]; 125 g/ha): very good (a very good herbicidal activity is given at values of at least 85) | herbicidal activity ([7]; 125 g/ha): very good (a very good herbicidal activity is given at values of at least 85)

CC(F)c1nc(N)nc(Nc2c(F)c(F)cc(F)c2F)n1 (centres unmarked) [Example 17]
herbicidal activity ([1]; 0.125 kg/ha): very good (a very good herbicidal activity is given at values of at least 85) | herbicidal activity ([3]; 0.125 kg/ha): very good (a very good herbicidal activity is given at values of at least 85)

CC(C)(F)c1nc(N)nc(Nc2c(F)cc(C#N)cc2F)n1 [Example 71]
herbicidal activity ([3]; 125 g/ha): good (a good herbicidal activity is given at values of at least 70) | herbicidal activity ([2]; 125 g/ha): very good (a very good herbicidal activity is given at values of at least 85)

CC(c1nc(N)nc(Nc2c(F)c(F)c(F)c(F)c2F)n1)C1CC1 (centres unmarked) [Example 63]
herbicidal activity ([5]; 125 g/ha): very good (a very good herbicidal activity is given at values of at least 85) | herbicidal activity [9]: very good (a very good herbicidal activity is given at values of at least 85) | herbicidal activity ([6]; 125 g/ha): very good (a very good herbicidal activity is given at values of at least 85)

CC(C)c1nc(N)nc(Nc2c(F)c(F)cc(F)c2F)n1 [Example 6]
herbicidal activity ([3]; 0.031 kg/ha): good (a good herbicidal activity is given at values of at least 70) | herbicidal activity ([4]; 0.031 kg/ha): very good (a very good herbicidal activity is given at values of at least 85)

Nc1nc(Nc2ccc(Br)cc2F)nc(C(F)F)n1 [Example 157]
herbicidal activity ([1]; 500 g/ha): very good (a very good herbicidal activity is given at values of at least 85) | herbicidal activity ([10]; 500 g/ha): very good (a very good herbicidal activity is given at values of at least 85)

CCC(C)(F)c1nc(NC(C)=O)nc(Nc2c(F)c(F)cc(F)c2F)n1 (centres unmarked) [Example 207]
herbicidal activity ([5]; 125 g/ha): very good (a very good herbicidal activity is given at values of at least 85) | herbicidal activity ([6]; 125 g/ha): very good (a very good herbicidal activity is given at values of at least 85) | herbicidal activity ([7]; 125 g/ha): very good (a very good herbicidal activity is given at values of at least 85)

CC(C)(F)c1nc(N)nc(Nc2c(F)c(F)cc(F)c2F)n1 [Example 2, 6-(1-Fluoro-1-methyl-ethyl)-N4-(2,3,5,6-tetrafluorophenyl)-1,3,5-triazine-2,4-diamine]
herbicidal activity ([10]; 0.125 kg/ha): very good (a very good herbicidal activity is given at values of at least 85) | herbicidal activity ([2]; 0.125 kg/ha): very good (a very good herbicidal activity is given at values of at least 85)

Nc1nc(Nc2c(F)cc(F)cc2F)nc(C2CC2)n1 [Example 143]
herbicidal activity ([3]; 500 g/ha): good (a good herbicidal activity is given at values of at least 70) | herbicidal activity ([4]; 500 g/ha): very good (a very good herbicidal activity is given at values of at least 85) | herbicidal activity ([2]; 500 g/ha): very good (a very good herbicidal activity is given at values of at least 85)

CC(C)(C)c1nc(N)nc(Nc2c(F)c(F)c(F)c(F)c2F)n1 [Example 52]
herbicidal activity ([1]; 0.062 kg/ha): very good (a very good herbicidal activity is given at values of at least 85) | herbicidal activity ([8]; 0.062 kg/ha): very good (a very good herbicidal activity is given at values of at least 85)

Nc1nc(Nc2c(F)c(F)cc(F)c2F)nc(C(F)(F)F)n1 [Example 132]
herbicidal activity ([3]; 500 g/ha): very good (a very good herbicidal activity is given at values of at least 85) | herbicidal activity ([4]; 500 g/ha): very good (a very good herbicidal activity is given at values of at least 85) | herbicidal activity ([2]; 500 g/ha): very good (a very good herbicidal activity is given at values of at least 85)

Nc1nc(Nc2c(F)c(F)c(F)c(F)c2F)nc(C2CCC2)n1 [Example 57]
herbicidal activity ([10]; 0.062 kg/ha): very good (a very good herbicidal activity is given at values of at least 85) | herbicidal activity ([4]; 0.062 kg/ha): very good (a very good herbicidal activity is given at values of at least 85)

CC(F)c1nc(N)nc(Nc2c(F)cc(F)cc2F)n1 (centres unmarked) [Example 15]
herbicidal activity ([5]; 0.0625 kg/ha): moderate (A moderate herbicidal activity is given at values of at least 60)

CC(C)c1nc(N)nc(Nc2c(F)c(F)c(F)c(F)c2F)n1 [Example 7]
herbicidal activity ([1]; 0.125 kg/ha): very good (a very good herbicidal activity is given at values of at least 85) | herbicidal activity ([8]; 0.125 kg/ha): very good (a very good herbicidal activity is given at values of at least 85)

Nc1nc(Nc2c(F)c(F)c(F)c(F)c2F)nc(C(F)(F)Cl)n1 [Example 146]
herbicidal activity ([3]; 500 g/ha): very good (a very good herbicidal activity is given at values of at least 85) | herbicidal activity ([4]; 500 g/ha): very good (a very good herbicidal activity is given at values of at least 85) | herbicidal activity ([2]; 500 g/ha): very good (a very good herbicidal activity is given at values of at least 85)

COc1ccc(F)c(F)c1Nc1nc(N)nc(C(C)(C)F)n1 [Example 61]
herbicidal activity ([3]; 0.062 kg/ha): very good (a very good herbicidal activity is given at values of at least 85) | herbicidal activity ([4]; 0.062 kg/ha): very good (a very good herbicidal activity is given at values of at least 85)

CC(C)(Cl)c1nc(N)nc(Nc2c(F)c(F)cc(F)c2F)n1 [Example 111]
herbicidal activity ([5]; 125 g/ha): very good (a very good herbicidal activity is given at values of at least 85) | herbicidal activity [9]: very good (a very good herbicidal activity is given at values of at least 85) | herbicidal activity ([7]; 125 g/ha): very good (a very good herbicidal activity is given at values of at least 85)

CC(C)(F)c1nc(N)nc(Nc2ccc(C(=O)O)cc2F)n1 [Example 173]
herbicidal activity ([10]; 500 g/ha): good (a good herbicidal activity is given at values of at least 70)

CC(C)(F)c1nc(N)nc(Nc2c(F)c(F)cc(-c3ccccc3)c2F)n1 [Example 192]
herbicidal activity ([1]; 1000 g/ha): very good (a very good herbicidal activity is given at values of at least 85) | herbicidal activity ([10]; 1000 g/ha): very good (a very good herbicidal activity is given at values of at least 85) | herbicidal activity ([4]; 1000 g/ha): very good (a very good herbicidal activity is given at values of at least 85)

CC(C)(F)c1nc(N)nc(Nc2c(F)ccc(F)c2F)n1 [Example 27]
herbicidal activity ([10]; 0.062 kg/ha): very good (a very good herbicidal activity is given at values of at least 85) | herbicidal activity ([4]; 0.062 kg/ha): very good (a very good herbicidal activity is given at values of at least 85)
